Compound in the assay “Midostaurin + Vorinostat”: CO[C@@H]1[C@H](N(C)C(=O)c2ccccc2)C[C@H]2O[C@]1(C)n1c3ccccc3c3c4c(c5c6ccccc6n2c5c31)C(=O)NC4 [Midostaurin] + O=C(CCCCCCC(=O)Nc1ccccc1)NO [Vorinostat] (partner 1 µM)
Briefly: relative viability (nuclei count vs DMSO), 5 days (fraction); higher = more cells survive. The essentials: (§1)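 Nuclei were stained with Hoechst during a one-step fixation (final 0.05% Triton X-100, 1% formaldehyde, 1 ug/ml Hoechst) carried out 5 days after dosing, then counted on 4× images. The cells, lung cancer lines in 1536-well plates, had been dosed by pin tool the day after seeding with one drug alone or a fixed anchor-drug dose plus five library-drug doses (not always all listed) in √10 steps. Relative viability is the nuclei count in treated wells divided by that in vehicle wells, and each value is the median of duplicate plates.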

Compound in the assay “Midostaurin + AZD7762”: CO[C@@H]1[C@H](N(C)C(=O)c2ccccc2)C[C@H]2O[C@]1(C)n1c3ccccc3c3c4c(c5c6ccccc6n2c5c31)C(=O)NC4 [Midostaurin] + NC(=O)Nc1cc(-c2cccc(F)c2)sc1C(=O)N[C@H]1CCCNC1 [AZD7762] (partner 0.2 µM)
The description is as above. The essentials: as §1

With 201T, the relative viability stood at 0.991 in the assay with Midostaurin + Vorinostat (first compound 0.01 µM); 0.871 with Midostaurin + Vorinostat (first compound 0.03162 µM); 1.02 with Midostaurin + Vorinostat (first compound 0.1 µM); 1.08 in the assay with Midostaurin + Vorinostat (first compound 0.3162 µM); 0.509 with Midostaurin + AZD7762 (first compound 0.01 µM); 0.687 with Midostaurin + AZD7762 (first compound 0.03162 µM). For the same cell line, the relative viability with Midostaurin + AZD7762 (first compound 0.1 µM) came to 0.595; with Midostaurin + AZD7762 (first compound 0.3162 µM), 0.66.
Consider A-427, for which the relative viability turned out to be 0.883 in the assay with Midostaurin + Vorinostat (first compound 0.01 µM); 0.887 with Midostaurin + Vorinostat (first compound 0.03162 µM); 0.848 in the assay with Midostaurin + Vorinostat (first compound 0.1 µM); 0.937 with Midostaurin + Vorinostat (first compound 0.3162 µM); 0.742 with Midostaurin + AZD7762 (first compound 0.01 µM); 0.727 in the assay with Midostaurin + AZD7762 (first compound 0.03162 µM). The relative viability with Midostaurin + AZD7762 (first compound 0.1 µM) came out at 0.871; in the assay with Midostaurin + AZD7762 (first compound 0.3162 µM) it was 0.723.
For ABC-1, the relative viability with Midostaurin + Vorinostat (first compound 0.01 µM) turned out to be 1.23; with Midostaurin + Vorinostat (first compound 0.03162 µM) it was 1.37; with Midostaurin + Vorinostat (first compound 0.1 µM), 1.08; in the assay with Midostaurin + Vorinostat (first compound 0.3162 µM), 0.996; with Midostaurin + AZD7762 (first compound 0.01 µM), 0.844; with Midostaurin + AZD7762 (first compound 0.03162 µM), 0.824. The relative viability with Midostaurin + AZD7762 (first compound 0.1 µM) was found to be 0.729.
With BEN, the relative viability was 0.594 in the assay with Midostaurin + Vorinostat (first compound 0.01 µM); 0.552 with Midostaurin + Vorinostat (first compound 0.03162 µM); 0.707 with Midostaurin + Vorinostat (first compound 0.1 µM); 0.598 with Midostaurin + Vorinostat (first compound 0.3162 µM); 0.743 in the assay with Midostaurin + AZD7762 (first compound 0.01 µM); 0.659 with Midostaurin + AZD7762 (first compound 0.03162 µM). In addition, the relative viability with Midostaurin + AZD7762 (first compound 0.1 µM) is 0.722; with Midostaurin + AZD7762 (first compound 0.3162 µM), 0.726.
As for CAL-12T, the relative viability with Midostaurin + Vorinostat (first compound 0.01 µM) was determined as 0.689; with Midostaurin + Vorinostat (first compound 0.03162 µM), 0.742; with Midostaurin + Vorinostat (first compound 0.1 µM), 0.734; with Midostaurin + Vorinostat (first compound 0.3162 µM), 0.457; with Midostaurin + AZD7762 (first compound 0.01 µM) it was 0.608; with Midostaurin + AZD7762 (first compound 0.03162 µM) it was 0.553. For the same cell line, the relative viability with Midostaurin + AZD7762 (first compound 0.1 µM) amounted to 0.469; with Midostaurin + AZD7762 (first compound 0.3162 µM), 0.452.
In the case of COR-L23, the relative viability with Midostaurin + Vorinostat (first compound 0.01 µM) was found to be 0.456; with Midostaurin + Vorinostat (first compound 0.03162 µM), 0.311; with Midostaurin + Vorinostat (first compound 0.1 µM), 0.276; with Midostaurin + Vorinostat (first compound 0.3162 µM) it was 0.205.
Regarding COR-L 105, the relative viability was determined as 0.899 in the assay with Midostaurin + Vorinostat (first compound 0.01 µM), 0.846 with Midostaurin + Vorinostat (first compound 0.03162 µM), 0.702 with Midostaurin + Vorinostat (first compound 0.1 µM) and 0.535 in the assay with Midostaurin + Vorinostat (first compound 0.3162 µM).
As to ChaGo-K-1, the relative viability with Midostaurin + Vorinostat (first compound 0.01 µM) worked out at 0.746; in the assay with Midostaurin + Vorinostat (first compound 0.03162 µM), 0.811; in the assay with Midostaurin + Vorinostat (first compound 0.1 µM) it was 0.619; in the assay with Midostaurin + Vorinostat (first compound 0.3162 µM) it was 0.714; with Midostaurin + AZD7762 (first compound 0.01 µM) it was 0.895; with Midostaurin + AZD7762 (first compound 0.03162 µM), 0.837. The figures for the relative viability with Midostaurin + AZD7762 (first compound 0.1 µM) and with Midostaurin + AZD7762 (first compound 0.3162 µM) were 0.677 and 0.946, respectively.
With EKVX, the relative viability turned out to be 0.735 with Midostaurin + Vorinostat (first compound 0.01 µM); 0.714 with Midostaurin + Vorinostat (first compound 0.03162 µM); 0.808 in the assay with Midostaurin + Vorinostat (first compound 0.1 µM); 0.583 in the assay with Midostaurin + Vorinostat (first compound 0.3162 µM); 0.604 in the assay with Midostaurin + AZD7762 (first compound 0.01 µM); 0.713 with Midostaurin + AZD7762 (first compound 0.03162 µM). Further, the results for the relative viability in the assay with Midostaurin + AZD7762 (first compound 0.1 µM) and in the assay with Midostaurin + AZD7762 (first compound 0.3162 µM) were 0.883 and 0.778, respectively.
Regarding EMC-BAC-2, the relative viability in the assay with Midostaurin + Vorinostat (first compound 0.01 µM) was 0.415; in the assay with Midostaurin + Vorinostat (first compound 0.03162 µM) it was 0.437; with Midostaurin + Vorinostat (first compound 0.1 µM) it was 0.407; with Midostaurin + Vorinostat (first compound 0.3162 µM), 0.476; with Midostaurin + AZD7762 (first compound 0.01 µM), 1.08; with Midostaurin + AZD7762 (first compound 0.03162 µM), 1.03. Also, the relative viability in the assay with Midostaurin + AZD7762 (first compound 0.1 µM) was found to be 1.04; with Midostaurin + AZD7762 (first compound 0.3162 µM), 1.08.
Turning to EPLC-272H, the relative viability was determined as 0.47 with Midostaurin + Vorinostat (first compound 0.01 µM); 0.436 with Midostaurin + Vorinostat (first compound 0.03162 µM); 0.426 in the assay with Midostaurin + Vorinostat (first compound 0.1 µM); 0.393 in the assay with Midostaurin + Vorinostat (first compound 0.3162 µM); 0.208 with Midostaurin + AZD7762 (first compound 0.01 µM); 0.287 with Midostaurin + AZD7762 (first compound 0.03162 µM). Besides, the relative viability with Midostaurin + AZD7762 (first compound 0.1 µM) came out at 0.259; in the assay with Midostaurin + AZD7762 (first compound 0.3162 µM) it was 0.165.
Consider H3255, for which the relative viability was 0.86 in the assay with Midostaurin + Vorinostat (first compound 0.01 µM); 0.615 with Midostaurin + Vorinostat (first compound 0.03162 µM); 0.765 in the assay with Midostaurin + Vorinostat (first compound 0.1 µM); 0.744 in the assay with Midostaurin + Vorinostat (first compound 0.3162 µM); 0.857 with Midostaurin + AZD7762 (first compound 0.01 µM); 0.786 in the assay with Midostaurin + AZD7762 (first compound 0.03162 µM). In addition, the values for the relative viability with Midostaurin + AZD7762 (first compound 0.1 µM) and in the assay with Midostaurin + AZD7762 (first compound 0.3162 µM) were 0.915 and 0.89, respectively.
On to HARA, for which the relative viability amounted to 0.482 with Midostaurin + Vorinostat (first compound 0.01 µM); 0.603 with Midostaurin + Vorinostat (first compound 0.03162 µM); 0.466 in the assay with Midostaurin + Vorinostat (first compound 0.1 µM); 0.505 with Midostaurin + Vorinostat (first compound 0.3162 µM); 0.301 in the assay with Midostaurin + AZD7762 (first compound 0.01 µM); 0.475 with Midostaurin + AZD7762 (first compound 0.03162 µM). For the same cell line, the figures for the relative viability with Midostaurin + AZD7762 (first compound 0.1 µM) and in the assay with Midostaurin + AZD7762 (first compound 0.3162 µM) were 0.394 and 0.299, respectively.
As for HCC-15, the relative viability with Midostaurin + Vorinostat (first compound 0.01 µM) turned out to be 0.942; with Midostaurin + Vorinostat (first compound 0.03162 µM) it was 0.806; in the assay with Midostaurin + Vorinostat (first compound 0.1 µM), 0.785; with Midostaurin + Vorinostat (first compound 0.3162 µM), 0.765; with Midostaurin + AZD7762 (first compound 0.01 µM), 1.16; with Midostaurin + AZD7762 (first compound 0.03162 µM) it was 0.98. Also, the relative viability in the assay with Midostaurin + AZD7762 (first compound 0.1 µM) worked out at 0.532; with Midostaurin + AZD7762 (first compound 0.3162 µM), 1.07.
As to HCC-44, the relative viability with Midostaurin + Vorinostat (first compound 0.01 µM) came out at 1.08; in the assay with Midostaurin + Vorinostat (first compound 0.03162 µM) it was 1.06; with Midostaurin + Vorinostat (first compound 0.1 µM), 1.11; with Midostaurin + Vorinostat (first compound 0.3162 µM), 1.16; in the assay with Midostaurin + AZD7762 (first compound 0.01 µM), 0.961; with Midostaurin + AZD7762 (first compound 0.03162 µM), 0.978. The values for the relative viability with Midostaurin + AZD7762 (first compound 0.1 µM) and with Midostaurin + AZD7762 (first compound 0.3162 µM) were 0.998 and 0.986, respectively.
As to HCC-78, the relative viability amounted to 0.545 with Midostaurin + Vorinostat (first compound 0.01 µM); 0.438 with Midostaurin + Vorinostat (first compound 0.03162 µM); 0.365 with Midostaurin + Vorinostat (first compound 0.1 µM); 0.312 with Midostaurin + Vorinostat (first compound 0.3162 µM); 0.682 with Midostaurin + AZD7762 (first compound 0.01 µM); 1.09 in the assay with Midostaurin + AZD7762 (first compound 0.03162 µM). Further, the relative viability in the assay with Midostaurin + AZD7762 (first compound 0.1 µM) is 0.644; with Midostaurin + AZD7762 (first compound 0.3162 µM), 0.483.
With HCC-366, the relative viability worked out at 0.364 in the assay with Midostaurin + Vorinostat (first compound 0.01 µM); 0.306 with Midostaurin + Vorinostat (first compound 0.03162 µM); 0.308 in the assay with Midostaurin + Vorinostat (first compound 0.1 µM); 0.0688 with Midostaurin + Vorinostat (first compound 0.3162 µM); 0.235 with Midostaurin + AZD7762 (first compound 0.01 µM); 0.373 with Midostaurin + AZD7762 (first compound 0.03162 µM). Moreover, the relative viability is 0.273 with Midostaurin + AZD7762 (first compound 0.1 µM) and 0.0975 in the assay with Midostaurin + AZD7762 (first compound 0.3162 µM).
As to HCC-827, the relative viability is 0.869 with Midostaurin + Vorinostat (first compound 0.01 µM); 0.724 in the assay with Midostaurin + Vorinostat (first compound 0.03162 µM); 0.897 in the assay with Midostaurin + Vorinostat (first compound 0.1 µM); 0.873 in the assay with Midostaurin + Vorinostat (first compound 0.3162 µM); 0.246 with Midostaurin + AZD7762 (first compound 0.01 µM); 0.206 with Midostaurin + AZD7762 (first compound 0.03162 µM). The relative viability with Midostaurin + AZD7762 (first compound 0.1 µM) stood at 0.237; with Midostaurin + AZD7762 (first compound 0.3162 µM), 0.215.

(Values after the supplement of paper PMC10307832.)
